ChEMBL document CHEMBL3044743, “Synthesis and Phytotoxic Activities of N-Substituted Phenyl Isothiazolone Derivatives” (J Pestic Sci, 2003)

test system: Scenedesmus acutus; experiment: Phytotoxicity against Scenedesmus acutus assessed as ethane production level per ml of packed cell volume at 10 uM after 20 hr by gas chromatography; format: functional

| SMILES | Activity |
| --- | --- |
| CC(C)OC(=O)c1cc(-n2c(=O)c3c([s+]2[O-])CCCC3)ccc1Cl (stereo not drawn) | 3 nmol/mL |
| CC(C)OC(=O)c1cc(N2C(=O)C3=C(CCCC3)C2=O)ccc1Cl | 12 nmol/mL |
| O=c1c2c([s+]([O-])n1-c1ccc(Cl)cc1)CCCC2 (stereo not drawn) | 3 nmol/mL |
| O=C1C2=C(CCCC2)C(=O)N1c1ccc(Cl)cc1 [CHLOROPHTHALIUM] | 12 nmol/mL |
| CC(C)OC(=O)c1cc(-n2sc3c(c2=O)CCCC3)ccc1Cl | 3 nmol/mL |
| O=c1c2c([s+]([O-])n1-c1cc(OC3CCCC3)c(Cl)cc1F)CCCC2 (stereo not drawn) | 0 nmol/mL |
| O=C1C2=C(CCCC2)S(=O)(=O)N1c1ccc(Cl)cc1 | 12 nmol/mL |
| O=C1C2=C(CCCC2)S(=O)(=O)N1c1cc(OC2CCCC2)c(Cl)cc1F | 3 nmol/mL |
| CC(C)OC(=O)c1cc(N2C(=O)C3=C(CCCC3)S2(=O)=O)ccc1Cl | 12 nmol/mL |
| O=c1c2c(sn1-c1cc(OC3CCCC3)c(Cl)cc1F)CCCC2 | 0 nmol/mL |
| O=C1C2=C(CCCC2)C(=O)N1c1cc(OC2CCCC2)c(Cl)cc1F | 12 nmol/mL |
| O=c1c2c(sn1-c1ccc(Cl)cc1)CCCC2 | 7 nmol/mL |

target: T1, Protoporphyrinogen IX oxidase (Zea mays) (UniProt Q9FYV8); experiment: Inhibition of protoporphyrinogen IX oxidase in Zea mays cv. DK212MF (maize) seedlings assessed as protoporphyrin IX formation at 10 uM after 5 min by spectrophotometry
T1 sequence (whole entry): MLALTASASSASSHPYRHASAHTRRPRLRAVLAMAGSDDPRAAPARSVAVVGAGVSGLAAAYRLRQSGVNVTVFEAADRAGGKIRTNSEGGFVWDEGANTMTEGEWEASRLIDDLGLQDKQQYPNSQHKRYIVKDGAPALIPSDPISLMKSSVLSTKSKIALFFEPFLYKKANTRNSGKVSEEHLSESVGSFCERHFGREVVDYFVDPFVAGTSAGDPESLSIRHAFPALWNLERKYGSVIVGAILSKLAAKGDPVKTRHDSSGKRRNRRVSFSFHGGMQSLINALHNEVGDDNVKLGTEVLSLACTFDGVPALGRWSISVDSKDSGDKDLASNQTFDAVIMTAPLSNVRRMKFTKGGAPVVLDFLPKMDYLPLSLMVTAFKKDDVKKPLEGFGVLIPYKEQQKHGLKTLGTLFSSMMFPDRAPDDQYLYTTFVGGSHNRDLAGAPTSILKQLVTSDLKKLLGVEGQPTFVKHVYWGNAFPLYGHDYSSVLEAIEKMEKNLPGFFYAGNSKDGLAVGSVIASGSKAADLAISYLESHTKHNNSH

| SMILES | inhibition |
| --- | --- |
| O=c1c2c(sn1-c1ccc(Cl)cc1)CCCC2 | 11.2% |
